According to US20250230193A1, “CYCLIC COMPOUND HAVING SELECTIVE KRAS INHIBITORY EFFECT ON HRAS AND NRAS” (CHUGAI SEIYAKU KABUSHIKI KAISHA, priority 2022, published 2025):

Assays:
[1] = target: GDP-bound NRAS wild-type protein (Homo sapiens, UniProt P01111); assay: Binding to NRAS by surface plasmon resonance (SPR), Single Cycle Kinetics; conditions: SPR; for NRAS/KRAS (ratio of KD value with respect to NRAS to KD value with respect to KRAS): GDP-bound NRAS wild-type vs GDP-bound KRAS wild-type
[2] = target: GDP-bound HRAS wild-type protein (Homo sapiens, UniProt P01112); assay: Binding to HRAS by surface plasmon resonance (SPR), Single Cycle Kinetics; conditions: SPR; for HRAS/KRAS (ratio of KD value with respect to HRAS to KD value with respect to KRAS): GDP-bound HRAS wild-type vs GDP-bound KRAS wild-type
GDP-bound HRAS wild-type protein, sequence (P01112 whole entry): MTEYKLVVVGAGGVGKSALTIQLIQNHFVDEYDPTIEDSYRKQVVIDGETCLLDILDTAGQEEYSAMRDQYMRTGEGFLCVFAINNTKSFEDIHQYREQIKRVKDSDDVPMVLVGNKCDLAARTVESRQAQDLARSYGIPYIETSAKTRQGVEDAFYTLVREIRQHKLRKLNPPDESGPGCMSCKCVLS

GDP-bound NRAS wild-type protein, sequence (P01111 whole entry): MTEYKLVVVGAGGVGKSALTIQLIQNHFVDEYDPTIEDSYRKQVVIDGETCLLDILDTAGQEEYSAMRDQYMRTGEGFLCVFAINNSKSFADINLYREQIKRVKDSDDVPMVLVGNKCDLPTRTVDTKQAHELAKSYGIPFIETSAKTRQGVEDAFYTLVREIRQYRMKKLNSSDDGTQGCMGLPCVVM

CCO[C@@H]1C[C@H]2C(=O)NC3(CCC3)C(=O)N(C)[C@@H](C3CCCC3)C(=O)N(CC)[C@H](C(=O)N3CCOCC3)CC(=O)N(C)[C@@H](CCc3ccccc3)C(=O)N[C@@H]([C@@H](C)CC)C(=O)N(C)CC(=O)N(C)[C@H]3CCCCCN(C3=O)[C@@H](Cc3ccc(C(F)(F)F)cc3)C(=O)N(C)CC(=O)N[C@@H](CCc3cc(F)c(C(F)(F)F)c(F)c3)C(=O)N2C1 [PP0953]
NRAS/KRAS (ratio of KD value with respect to NRAS to KD value with respect to KRAS) ([1]; KD ratio): A (a compound having 10 or more and less than 20 is denoted as A)
HRAS/KRAS (ratio of KD value with respect to HRAS to KD value with respect to KRAS) ([2]; KD ratio): A (a compound having 10 or more and less than 20 is denoted as A)

CCC[C@H]1C(=O)N[C@@H]([C@@H](C)CC)C(=O)N(C)CC(=O)N(C)[C@H]2C/C=C\CCN(C2=O)[C@@H](Cc2ccc(C(F)(F)F)cc2)C(=O)N(C)CC(=O)N[C@@H](CCc2ccc(C(F)(F)F)c(Cl)c2)C(=O)N2CC3(CC3)C[C@H]2C(=O)NC2(CC(C)(C)C2)C(=O)N(C)[C@@H](CC(C)C)C(=O)N(C)[C@H](C(=O)N(C)C)CC(=O)N1C [PP2987]
NRAS/KRAS (ratio of KD value with respect to GDP-bound NRAS wild-type protein to KD value with respect to KRAS) ([1]; GDP-bound wild-type proteins): AA (a compound having 20 or more is denoted as AA)
HRAS/KRAS (ratio of KD value with respect to GDP-bound HRAS wild-type protein to KD value with respect to KRAS) ([2]; GDP-bound wild-type proteins): A (a compound having 10 or more and less than 20 is denoted as A)

CCC[C@H]1C(=O)N[C@@H](C2CCOCC2)C(=O)N(C)CC(=O)N(C)[C@H]2C/C=C\CCN(C2=O)[C@@H](Cc2ccc(C)cc2)C(=O)N(C)CC(=O)N[C@@H](CCc2ccc(C(F)(F)F)c(Cl)c2)C(=O)N2C[C@H](OCC)C[C@H]2C(=O)NC2(CC(C)(C)C2)C(=O)N(C)[C@@H](C2CCCC2)C(=O)N(C)[C@H](C(=O)N(C)C)CC(=O)N1C [PP3002]
NRAS/KRAS (ratio of KD value with respect to GDP-bound NRAS wild-type protein to KD value with respect to KRAS) ([1]; GDP-bound wild-type proteins): A (a compound having 10 or more and less than 20 is denoted as A)
HRAS/KRAS (ratio of KD value with respect to GDP-bound HRAS wild-type protein to KD value with respect to KRAS) ([2]; GDP-bound wild-type proteins): A (a compound having 10 or more and less than 20 is denoted as A)

CCO[C@@H]1C[C@H]2C(=O)NC3(CCC3)C(=O)N(C)[C@@H](C3CCCC3)C(=O)N(CC)[C@H](C(=O)N3CCOCC3)CC(=O)N(C)[C@@H](CCOC)C(=O)N[C@@H]([C@@H](C)CC)C(=O)N(C)CC(=O)N(C)[C@H]3CCCCCN(C3=O)[C@@H](Cc3ccc(C(F)(F)F)cc3)C(=O)N(C)CC(=O)N[C@@H](CCc3cc(F)c(C(F)(F)F)c(F)c3)C(=O)N2C1 [PP0947]
NRAS/KRAS (ratio of KD value with respect to NRAS to KD value with respect to KRAS) ([1]; KD ratio): A (a compound having 10 or more and less than 20 is denoted as A)
HRAS/KRAS (ratio of KD value with respect to HRAS to KD value with respect to KRAS) ([2]; KD ratio): A (a compound having 10 or more and less than 20 is denoted as A)

CCO[C@@H]1C[C@H]2C(=O)NC3(CC(C)(C)C3)C(=O)N(C)[C@@H](C(CC)CC)C(=O)N(C)[C@H](C(=O)N(C)C)CC(=O)N(C)[C@H]3CCCC/C=C/c4ccc(cc4)C[C@@H](C(=O)N(C)CC(=O)N[C@@H](CCc4cc(F)c(C(F)(F)F)c(F)c4)C(=O)N2C1)N1CC/C=C\C[C@@H](C1=O)N(C)C(=O)CN(C)C(=O)[C@H]([C@@H](C)CC)NC3=O [PP3044]
NRAS/KRAS (ratio of KD value with respect to GDP-bound NRAS wild-type protein to KD value with respect to KRAS) ([1]; GDP-bound wild-type proteins): AA (a compound having 20 or more is denoted as AA)
HRAS/KRAS (ratio of KD value with respect to GDP-bound HRAS wild-type protein to KD value with respect to KRAS) ([2]; GDP-bound wild-type proteins): A (a compound having 10 or more and less than 20 is denoted as A)

CCO[C@@H]1C[C@H]2C(=O)NC3(CCC3)C(=O)N(C)[C@@H](C3CCCC3)C(=O)N(CCC3CCCC3)[C@H](C(=O)N(C)C)CC(=O)N(C)[C@@H](CC(C)C)C(=O)N[C@@H]([C@@H](C)CC)C(=O)N(C)CC(=O)N(C)[C@H]3CCCCCN(C3=O)[C@@H](Cc3ccc(F)cc3)C(=O)N(C)CC(=O)N[C@@H](CCc3ccc(C(F)(F)F)c(Cl)c3)C(=O)N2C1 [PP0976]
NRAS/KRAS (ratio of KD value with respect to NRAS to KD value with respect to KRAS) ([1]; KD ratio): B (a compound having 3 or more and less than 10 is denoted as B)
HRAS/KRAS (ratio of KD value with respect to HRAS to KD value with respect to KRAS) ([2]; KD ratio): B (a compound having 3 or more and less than 10 is denoted as B)

CCO[C@@H]1C[C@H]2C(=O)NC3(CCC3)C(=O)N(C)[C@@H](C3CCCC3)C(=O)N(C)[C@H](C(=O)N(C)C)CC(=O)N(C)[C@@H](C)C(=O)N[C@@H]([C@@H](C)CC)C(=O)N(C)CC(=O)N(C)[C@H]3CCCCCN(C3=O)[C@@H](Cc3ccc(C(F)(F)F)cc3)C(=O)N(C)CC(=O)N[C@@H](CCc3cc(F)c(C(F)(F)F)c(F)c3)C(=O)N2C1 [PP0476]
NRAS/KRAS (ratio of KD value with respect to GDP-bound NRAS wild-type protein to KD value with respect to KRAS) [1]: B (a compound having 3 or more and less than 10 is denoted as B)
HRAS/KRAS (ratio of KD value with respect to GDP-bound HRAS wild-type protein to KD value with respect to KRAS) [2]: B (a compound having 3 or more and less than 10 is denoted as B)

CCOC[C@H]1C(=O)N[C@@H]([C@@H](C)CC)C(=O)N(C)CC(=O)N(C)[C@H]2C/C=C\CCN(C2=O)[C@@H](CC2CCC(F)(F)CC2)C(=O)N(C)CC(=O)N[C@@H](CCc2cc(F)c(C(F)(F)F)c(F)c2)C(=O)N2C[C@@H](C)C[C@H]2C(=O)NC2(CC(C)(C)C2)C(=O)N(C)[C@@H](C(CC)CC)C(=O)N(C)[C@H](C(=O)N(C)C)CC(=O)N1C [PP2462]
NRAS/KRAS (ratio of KD value with respect to NRAS to KD value with respect to KRAS) [1]: A (a compound having 10 or more and less than 20 is denoted as A)
HRAS/KRAS (ratio of KD value with respect to HRAS to KD value with respect to KRAS) [2]: A (a compound having 10 or more and less than 20 is denoted as A)
